“And” between values parts separate entries of the source, which are not always exact repeats. Identical values can stand only once.
Molecular target: Human Serum Albumin (Homo sapiens, UniProt P02768)
Test: Binding (%) of the paramagnetic complex to human serum proteins/albumin by centrifugal ultrafiltration
Assay type: in vitro ADME
Parameters: purchased Nycomed Phama; host or cells: Seronorm Human, reconstituted (lyophilised) human serum
Excerpt: Preferred albumin binding agents according to the invention include paramagnetic contrast agents having molecular weight lower than 5,000 Da, preferably lower that 3,000 Da and, more preferably, comprised from 800 to 3,000 Da, that further display an in-vivo non-covalent protein binding with the Human Serum Albumin (or HSA, or albumin, as herein used interchangeably) equal to or higher that 85%, preferably higher than 90% and, more preferably, higher than 95%, expressed in terms of % of the agent amount that is non-covalently bound to serum albumin, measured by centrifugal ultrafiltration (Centrifree®) from a 0.5 mM solution of the agent in Seronorm® incubated at 37° C., according to the procedure disclosed, for instance, in Invest.Radiol. 2006, 41: 279-291; Whitlam J B, Brown K F. Ultrafiltration in serum protein binding determinations. J.Pharm.Sci. 1981; 70:146-150, and in the Example 2 of the Experimental section.
The binding (%) has been determined by with the method of the centrifugal ultrafiltration as described in: Whitlam J B, Brown K F Ultrafiltration in serum protein binding determination. J. Pharm Sci. 1981; 70:146-150; Bowers W F, Fulton S, thompson J. Ultrafiltration vs equilibrium dialysis for determination of free fraction. […]
The albumin serum protein binding was analysed in a human serum solution (Seronorm Human, Nycomed Phama) where each complex was added at a concentration of Gd(III) ion of 0.5 mM. […] The percent of Gd(III)-complex bound (% B) was determined by equation: % B=[(Ct−Cf)/Ct]*100 where Ct is the total amount of Gd(III) in the incubated solution and Cf is the free Gd(III) complex found in the permeate solution. The average bound fraction was assessed from ultrafiltration experiments carried out in triplicate. […]
The above solution (0.300 mL) was added to 15 mL of reconstituted human serum. […] The protein free permeate solution (0.4 mL) was collected and Cf was measured by ICP-MS analysis. […]
From obtained Cf values the percent of bound Gd-complex was determined by application of the following equation % B=[(Ct−Cf)/Ct]*100 where Ct is 0.460 mM (S.D.: 0.015). […]

Sequence of Human Serum Albumin (P02768 25-609): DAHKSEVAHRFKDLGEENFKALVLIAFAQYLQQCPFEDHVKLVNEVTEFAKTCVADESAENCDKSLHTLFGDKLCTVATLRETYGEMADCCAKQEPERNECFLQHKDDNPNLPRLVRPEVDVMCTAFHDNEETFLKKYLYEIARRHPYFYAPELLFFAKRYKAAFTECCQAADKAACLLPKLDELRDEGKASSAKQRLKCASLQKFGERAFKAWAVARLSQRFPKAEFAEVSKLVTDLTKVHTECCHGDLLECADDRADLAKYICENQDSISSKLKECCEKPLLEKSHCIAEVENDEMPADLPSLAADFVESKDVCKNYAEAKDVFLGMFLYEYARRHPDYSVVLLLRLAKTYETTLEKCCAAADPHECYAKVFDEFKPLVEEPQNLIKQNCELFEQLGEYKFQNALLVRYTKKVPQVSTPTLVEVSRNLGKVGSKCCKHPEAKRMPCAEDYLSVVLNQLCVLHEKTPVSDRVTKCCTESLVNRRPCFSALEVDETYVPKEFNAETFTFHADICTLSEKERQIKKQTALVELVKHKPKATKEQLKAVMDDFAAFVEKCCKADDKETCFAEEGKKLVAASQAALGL

## C[C@H](CCC(=O)[O-])[C@H]1CC[C@H]2[C@@H]3CC[C@@H]4C[C@@H](NC(=O)CC[C@@H](C(=O)[O-])N(CCN(CC(=O)[O-])CC(=O)[O-])CCN(CC(=O)[O-])CC(=O)[O-])CC[C@]4(C)[C@H]3C[C@H](O)[C@]12C.[Gd+3].[Na+].[Na+].[Na+] [B22956/1, Gadocoletic acid trisodium salt]
0.5 mM Gd(III) complex in Seronorm human serum, 10 min at 37° C., 30 KDa MWCO ultrafiltration, per permeate A, B, C, trisodium salt
  Average Gd(III), Cf (free Gd(III) complex in the permeate solution): 0.016 mM and 0.011 mM and 0.012 mM
0.5 mM complex in human serum, 37° C., average of triplicate
  % B, Average: 97.19%
0.5 mM complex in human serum, 37° C., single ultrafiltrations, trisodium salt
  % B (percent of Gd(III)-complex bound to serum proteins): 96.52% and 97.65% and 97.39%

— US9952300B2, “Dynamic contrast enhanced MRI method and agents for the assessment of the macromolecular transport within pathologic tissues” (BRACCO IMAGING S.P.A., priority 2012, dated 2018)
